# According to US3980646A, “3-Methylpyrazole-5-carboxylates and medicaments containing these compounds” (Wulfing; Johann A., priority 1974, dated 1976):
# Several values for one entry are separate records, joined by “and”; a condition that tells them apart may be missing. Identical values can stand only once. Entries after “also recorded” stand apart in the source; their conditions may differ.
# Columns and labels:
# free fatty acids (FFS) = assay: influence on the free fatty acids (FFS) after repeated application once daily for 4 days; assay type: in vivo, Rats male (Wistar); details: for free fatty acids (FFS): individual animals; for free fatty acids (FFS) / free fatty acids (FFS), mean (x10): 4 × appl. 50 mg/kg p.o.; for free fatty acids (FFS), mean (x10): control 1.27, p<0.001
# Procedure: Rats male, repeated application once daily for 4 days,
# on the 4th day groups of 10 animals were killed at
# intervals of 30 minutes, 1 hour and 2 hours after the
# last application by ether narcosis and heart puncture.
# 10 controls were given esophagus probe, animals starved
# for 17 hours before killing (cf. FIG. 4)
# 7-[3-(N-methyl-2-hydroxyethyl)-amino-2-
# hydroxypropyl]-1,3-dimethylxanthine-3-
# methylpyrazole-5-carboxylate 50 mg/kg peroral
# 3-methylpyrazole-5-carboxylic acid (3-MPC)
# eq./kg 15 mg/kg peroral
# [1] = general pharmacological effects (lipolysis inhibition, lipid lowering, tachyphylaxis, toxicity); assay type: in vivo
# serum triglycerides = assay: influence on the serum triglycerides of repeated application; assay type: in vivo, rats male (Wistar); details: for serum triglycerides: individual animals, starve for 5 hours, 100 mg/kg; for serum triglycerides / serum triglycerides, mean (x10): 100 mg/kg x/day p.o.; for serum triglycerides, mean (x10): control 133.6
# Procedure: Influence on the serum triglycerides of repeated application of
# (§1) 100 mg/kg x/day p.o. rats male, starve for 5 hours, ether narcosis, heart
# (§2) last application 1 hour before killing (cf. FIG. 3)
# serum cholesterol = assay: influence on the serum cholesterol of repeated application; assay type: in vivo, rats male (Wistar); details: for serum cholesterol: individual animals, starve for 5 hours, 100 mg/kg; for serum cholesterol / serum cholesterol, mean (x10): 100 mg/kg x/day p.o.; for serum cholesterol, mean (x10): control 71.28
# Procedure: Influence on the serum cholesterol of repeated application of
# as §1, §2
# mice = assay: LD50 in mice; assay type: in vivo
# serum fatty acids (FFS) = assay: influence on the serum fatty acids (FFS) of hyperlipacidaemic rats, alcohol lipolysis; assay type: in vivo, rats (Wistar); details: alcohol 2 g/kg i.v., 100 mg/kg oral 3 hours before blood removal
# Procedure: Investigations on a total of 260 Wistarrats were conducted with 7-[3-(N-methyl-N-2-hydroxyethyl)-amino-2-hydroxypropyl]-1,3-dimethylxanthine-3-methylpyrazole-5-carboxylate.
# rats, starve for 5 hours,
# Dose: alcohol 2g/kg body weight in 20% solution i.v.,
# Dose: active principle according to the invention
# 100 mg/kg body weight, oral by esophagus probe
# 3 hours before blood removal
# [2] = 100 mg/kg over 4 days, result in words
structure (smiles),measurement,setting,value
"CN(CCO)CC(O)Cn1cnc2c1c(=O)n(C)c(=O)n2C.Cc1cc(C(=O)O)[nH]n1 (stereo not drawn) [7-[3-(N-methyl-N-2-hydroxyethyl)-amino-2-hydroxypropyl]-1,3-dimethylxanthine-3-methylpyrazole-5-carboxylate]",free fatty acids (FFS),free fatty acids (FFS); 1 h after last appl.,0.75 μval/ml plasma and 0.42 μval/ml plasma and 0.45 μval/ml plasma and 0.56 μval/ml plasma and 0.67 μval/ml plasma and 0.54 μval/ml plasma and 0.86 μval/ml plasma and 0.63 μval/ml plasma and 0.98 μval/ml plasma and 0.89 μval/ml plasma
same,free fatty acids (FFS),free fatty acids (FFS); 2 h after last appl.,0.79 μval/ml plasma and 0.58 μval/ml plasma and 0.94 μval/ml plasma and 0.80 μval/ml plasma and 1.10 μval/ml plasma and 1.07 μval/ml plasma and 0.84 μval/ml plasma and 0.90 μval/ml plasma and 0.97 μval/ml plasma and 0.83 μval/ml plasma
same,"free fatty acids (FFS), mean (x10)",free fatty acids (FFS); 30' after last application,0.87 μval/ml plasma
same,"free fatty acids (FFS), mean (x10)",free fatty acids (FFS); 1 h after last appl.,0.68 μval/ml plasma
same,"free fatty acids (FFS), mean (x10)",free fatty acids (FFS); 2 h after last appl.,0.88 μval/ml plasma
same,weakening of effect on free fatty acid content by pretreatment,"free fatty acids (FFS); repeated application, result in words",does not have this effect
same,influence on free fatty acids (FFS),"[1]; doses down to 2 mg/kg, normal and hyperlipacidaemic rats (starved animals, alcohol animals)",significantly influences the free fatty acids (FFS)
same,"effect (lipolysis inhibition, reducing triglyceride and cholesterol level, low toxicity)",[1]; result in words,particularly marked effect
same,effect on the serum triglycerides on repeated application,serum triglycerides; [2],"uniform and, in some cases, even increased effect; also recorded: still significantly reduced"
same,serum triglycerides,serum triglycerides; 1st day,85.9 mg% and 57.3 mg% and 118.6 mg% and 104.5 mg% and 65.9 mg% and 88.8 mg%
same,"serum triglycerides, mean (x10)",serum triglycerides; 1st day,82.6 mg%
same,serum triglycerides,serum triglycerides; 2nd day,38.7 mg% and 61.6 mg% and 54.4 mg% and 63.0 mg% and 95.9 mg% and 87.3 mg% and 127.4 mg% and 74.4 mg% and 57.2 mg% and 88.7 mg%
same,"serum triglycerides, mean (x10)",serum triglycerides; 2nd day,74.8 mg%
same,serum triglycerides,serum triglycerides; 3rd day,60.1 mg% and 63.0 mg% and 90.2 mg% and 108.8 mg% and 50.1 mg% and 97.4 mg% and 80.2 mg% and 105.9 mg% and 58.7 mg%
same,"serum triglycerides, mean (x10)",serum triglycerides; 3rd day,77.4 mg%
same,serum triglycerides,serum triglycerides; 4th day,30.1 mg% and 73.0 mg% and 67.0 mg% and 64.4 mg% and 60.1 mg% and 44.4 mg% and 58.7 mg% and 101.7 mg% and 67.3 mg%
same,"serum triglycerides, mean (x10)",serum triglycerides; 4th day,61.1 mg%
same,effect on the serum cholesterol on repeated application,serum cholesterol; [2],"uniform and, in some cases, even increased effect; also recorded: still significantly reduced"
same,serum cholesterol,serum cholesterol; 1st day,71.70 mg % and 49.06 mg % and 51.89 mg % and 67.92 mg % and 68.87 mg % and 52.83 mg % and 50.94 mg %
same,"serum cholesterol, mean (x10)",serum cholesterol; 1st day,58.68 mg %
same,serum cholesterol,serum cholesterol; 2nd day,37.4 mg % and 54.2 mg % and 55.2 mg % and 69.9 mg % and 65.0 mg % and 69.1 mg % and 39.4 mg % and 47.3 mg % and 49.3 mg % and 51.2 mg %
same,"serum cholesterol, mean (x10)",serum cholesterol; 2nd day,53.8 mg %
same,serum cholesterol,serum cholesterol; 3rd day,52.36 mg % and 71.24 mg % and 67.81 mg % and 50.64 mg % and 57.51 mg % and 64.38 mg % and 62.66 mg % and 68.67 mg % and 60.94 mg %
same,"serum cholesterol, mean (x10)",serum cholesterol; 3rd day,62.75 mg %
same,serum cholesterol,serum cholesterol; 4th day,42.98 mg % and 37.19 mg % and 52.07 mg % and 64.46 mg % and 80.99 mg % and 47.11 mg % and 65.29 mg % and 58.68 mg % and 50.41 mg % and 43.80 mg %
same,"serum cholesterol, mean (x10)",serum cholesterol; 4th day,54.30 mg %
same,LD50,mice; i.v.,540 mg/kg
same,LD50,mice; per oral,more than 1000 mg/kg
same,FFS,"serum fatty acids (FFS); individual animals, 100 mg/kg",0.45 μval/ml and 0.58 μval/ml and 0.59 μval/ml and 0.60 μval/ml and 0.52 μval/ml and 0.56 μval/ml and 0.43 μval/ml and 0.66 μval/ml and 0.67 μval/ml and 0.53 μval/ml
same,"FFS, mean (φ)","serum fatty acids (FFS); mean, control φ 0.64, alcohol series φ 0.79, p<0.001",0.56 μval/ml
